Measurements published in US9504728B2, “Dosage form” (priority 2011, dated 2016).
Where two headings read alike, the source gives them in different places.

Assays:
in vivo = conditions: male, mouse, CD1 mice; for bioavailability: p.o. 10 or 5 mg/kg vs i.v. 1 mg/kg, read-out: Oral bioavailability F %
Method: For sanglifehrins, whole blood is analysed. Compounds are formulated in 5% ethanol/5% cremophor EL/90% saline for both p.o. and i.v. administration. Groups of 3 male CD1 mice are dosed with either 1 mg/kg i.v. or 5 or 10 mg/kg p.o. Blood samples (40 μL) are taken via saphenous vein, pre-dose and at 0.25, 0.5, 2, 8, and 24 hours, and diluted with an equal amount of dH20 and put on dry ice immediately. Samples are stored at −70° C. until analysis. The concentration of the sanglifehrin or parent compound in the sample is determined via LCMS as follows: 20 μL of blood:H2O (1:1, v/v)/PK sample is added with 20 μL Internal standard (hydroxyl macrocycle, 6) at 100 ng/mL, 20 μL working solution/MeOH and 150 μL of ACN, vortexed for 1 minute at 1500 rpm, and centrifuged at 12000 rpm for 5 min. The supernatant is then injected into LC-MS/MS. The time-course of blood concentrations is plotted and used to derive area under the whole blood concentration-time curve (AUC—which is directly proportional to the total amount of unchanged drug that reaches the systemic circulation). These values are used to generate PK parameters where possible.
To assess the pharmacokinetics of the compounds in an in vivo setting, compounds were dosed po at 10 or 5 mg/kg and iv at 1 mg/kg to groups of CD1 mice.
Pharmacokinetic analysis was carried out as described in the general methods.

physchem = conditions: for PBS % remaining after 1 hour: phosphate buffered saline pH 7.3, 37° C.; for SGF % remaining after 1 hour: simulated gastric fluid pH 1.2, 37° C.
Method: 1 mM DMSO solutions were made of compounds to be tested and mixed on vibrax to ensure compound was fully dissolved.
PBS Solution: 2 tablets of Phosphate Buffered Saline (Dulbecco A) tablets (Oxoid, BR0014G) were added to 200 mL distilled water and stirred to mix. pH was measured at 7.28.
Simulated Gut Fluid (SGF): 300 uL conc. HCl added to 50 mL distilled water and mixed. pH was measured at 1.21.
Simulated gut fluid+pepsin: 300 uL conc. HCl and 1 g of Pepsin (from Porcine gastric mucosa, Sigma) were added to 50 mL distilled water and mixed by stirring for 1 hr.
SGF+denatured pepsin: 900 uL of Acidic Enzyme Solution taken into a 2 mL eppendorf tube and heated at 99° C. in a water bath for 30 mins.
Acidic Enzyme and Acidic Denatured Enzyme solutions were made fresh each day, whereas PBS and Acid Solutions were stored at 4° C. when not in use.
Eppendorfs containing 900 uL of test solutions were pre-warmed in a 37° C. water bath. At t=0, 100 uL of test compound (1 mM DMSO solution) was added to test solution and mixed. 100 uL was taken immediately and mixed into 900 uL acetonitrile in an amber glass LC vial. 50-100 uL of the sample was analysed by HPLC, integrating the compounds' UV peaks to determine degradation over time. Sanglifehrin A was measured at its λmax of 240 nm; 33, 45 and 24 were measured at their λmax of 276 nm.
Further samples were taken in the same manner for analysis at approximately t=0.33, 0.67, 1.0, 2.67, and 4.67 hr. A final analysis was run at t=>30 to confirm end point of reaction.
Controls of test compound DMSO solutions in 900 uL DMSO were also prepared and treated in the same manner, with samples analysed at t=0, t=8 and t=>30 hr. Half lives were calculated from the data generated.
Stability of compounds was analysed in simulated gastric fluid, pH1.2 (SGF) and phosphate buffered saline, pH7.3 (PBS).

cyclophilin A (CypA) = cyclophilin A (CypA) (Homo sapiens, UniProt P62937); conditions: in words; Sedrani et al., 2003; cited from earlier work
Sequence of cyclophilin A (CypA) (P62937 whole entry): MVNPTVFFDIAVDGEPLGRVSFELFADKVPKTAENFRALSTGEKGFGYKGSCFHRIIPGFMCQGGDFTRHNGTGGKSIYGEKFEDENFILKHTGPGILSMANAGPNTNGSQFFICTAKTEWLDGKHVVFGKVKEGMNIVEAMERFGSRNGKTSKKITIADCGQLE

[1] = iv, whole blood, 1 mg/kg i.v., read-out: AUClast after 1 mg/kg i.v. dose
[2] = po, whole blood, 10 mg/kg p.o., read-out: AUClast after 10 mg/kg p.o. dose
[3] = in vivo, iv, whole blood, 1 mg/kg i.v., read-out: AUClast after 1 mg/kg i.v. dose
[4] = in vivo, po, whole blood, 10 mg/kg p.o., read-out: AUClast after 10 mg/kg p.o. dose

Structure (SMILES): CON(C)C(=O)/C=C/C=C(\C)[C@@H]1C/C=C/C=C/[C@H](O)[C@H](C)[C@@H](O)[C@@H](CCC(C)=O)C(=O)N[C@@H](C(C)C)C(=O)N[C@@H](Cc2cc(O)cc(F)c2)C(=O)N2CCCC(N2)C(=O)O1 (stereo partly shown) [Compound 23]
- AUC(0-t) (in vivo; [1]): 22900 ng·h/mL
- bioavailability (in vivo; whole blood, po): 2.4%

Structure (SMILES): CON(C)C(=O)/C=C/C=C(\C)[C@@H]1C/C=C/C=C/[C@H](O)[C@H](C)[C@@H](O)[C@@H](CCC(C)=O)C(=O)N[C@@H](C(C)C)C(=O)N[C@@H](Cc2cccc(O)c2)C(=O)N2CCCC(N2)C(=O)O1 (stereo partly shown) [Compound 33]
- AUC(0-t) (in vivo; [1]): 14300 ng·h/mL
- AUC(0-t) (in vivo; [2]): 2200 ng·h/mL
- bioavailability (in vivo; whole blood, po): 1.6%
- half-life at 100 µM (physchem; buffer, pH 7.3): > 1440 min
- SGF + Pepsin, % remaining after 1 hour (physchem; pig, simulated gi fluid, 1 h, 100 µM): 25%
- half-life at 100 µM (physchem; simulated gi fluid, pH 1.2): 39.6 min

Structure (SMILES): CC(=O)CC[C@H]1C(=O)N[C@@H](C(C)C)C(=O)N[C@@H](Cc2cccc(O)c2)C(=O)N2CCCC(N2)C(=O)O[C@H](/C(C)=C/C=C/C(=O)N(CC(C)C)CC(C)C)C/C=C/C=C/[C@H](O)[C@H](C)[C@H]1O (stereo partly shown) [Compound 41]
- AUC(0-t) (in vivo; [1]): 1940 ng·h/mL
- AUC(0-t) (in vivo; [2]): 453 ng·h/mL
- bioavailability (in vivo; whole blood, po): 2.4%

Structure (SMILES): CC(=O)CC[C@H]1C(=O)N[C@@H](C(C)C)C(=O)N[C@@H](Cc2cccc(O)c2)C(=O)N2CCCC(N2)C(=O)O[C@H](/C(C)=C/C=C/C(=O)OC(C)(C)C)C/C=C/C=C/[C@H](O)[C@H](C)[C@H]1O (stereo partly shown) [Compound 40]
- AUC(0-t) (in vivo; [1]): 4910 ng·h/mL
- AUC(0-t) (in vivo; [2]): 3880 ng·h/mL
- bioavailability (in vivo; whole blood, po): 7.8%

Structure (SMILES): CNC(=O)/C=C/C=C(\C)[C@@H]1C/C=C/C=C/[C@H](O)[C@H](C)[C@@H](O)[C@@H](CCC(C)=O)C(=O)N[C@@H](C(C)C)C(=O)N[C@@H](Cc2cccc(O)c2)C(=O)N2CCCC(N2)C(=O)O1 (stereo partly shown) [Compound 36]
- AUC(0-t) (in vivo; [1]): 4920 ng·h/mL
- AUC(0-t) (in vivo; [2]): 17.8 ng·h/mL
- bioavailability (in vivo; whole blood, po): 0.04%

Structure (SMILES): CC(=O)CC[C@H]1C(=O)N[C@@H](C(C)C)C(=O)N[C@@H](Cc2cccc(O)c2)C(=O)N2CCCC(N2)C(=O)O[C@H](/C(C)=C/C=C/C(=O)N2CCCCO2)C/C=C/C=C/[C@H](O)[C@H](C)[C@H]1O (stereo partly shown) [Compound 45]
- AUC(0-t) (in vivo; [3]): 15100 ng·h/mL
- bioavailability (in vivo; in vivo, po): 3.2%
- AUC(0-t) (in vivo; [4]): 4840 ng·h/mL
- SGF + denatured pepsin, % remaining after 1 hour (physchem; 37° C., 1 hour): 15%
- SGF + Pepsin, % remaining after 1 hour (physchem; SGF + pepsin, 37° C., 1 hour): 17%
- half-life at 100 µM (physchem; buffer, pH 7.3): > 1440 min
- PBS % remaining after 1 hour (physchem; 1 hour): 100%
- SGF % remaining after 1 hour (physchem; 1 hour): 13%
- half-life at 100 µM (physchem; simulated gi fluid, pH 1.2): < 19.8 min

Structure (SMILES): CC(=O)CC[C@H]1C(=O)N[C@@H](C(C)C)C(=O)N[C@@H](Cc2cccc(O)c2)C(=O)N2CCCC(N2)C(=O)O[C@H](/C(C)=C/C=C/C(=O)Nc2ccccn2)C/C=C/C=C/[C@H](O)[C@H](C)[C@H]1O (stereo partly shown) [Compound 42]
- AUC(0-t) (in vivo; [3]): 11700 ng·h/mL
- bioavailability (in vivo; in vivo, po): 0.7%
- AUC(0-t) (in vivo; [4]): 919 ng·h/mL

Structure (SMILES): CNC(=O)/C=C/C=C(\C)[C@@H]1C/C=C/C=C/[C@H](O)[C@H](C)[C@@H](O)[C@@H](CCC(C)=O)C(=O)N[C@@H](C(C)C)C(=O)N[C@@H](Cc2cccc(OC)c2)C(=O)N2CCCC(N2)C(=O)O1 (stereo partly shown) [Compound 37]
- AUC(0-t) (in vivo; [1]): 1220 ng·h/mL
- AUC(0-t) (in vivo; [2]): 4.76 ng·h/mL
- bioavailability (in vivo; whole blood, po): 0.04%

Structure (SMILES): C/C(=C\CO)[C@@H]1C/C=C/C=C/[C@@H]2OC3(C)CC[C@@H](C(=O)N[C@@H](C(C)C)C(=O)N[C@@H](Cc4cccc(O)c4)C(=O)N4CCCC(N4)C(=O)O1)[C@H](O3)[C@H]2C [Compound 35]
- AUC(0-t) (in vivo; [1]): 813 ng·h/mL
- AUC(0-t) (in vivo; [2]): 11.3 ng·h/mL
- bioavailability (in vivo; whole blood, po): 0.1%

Structure (SMILES): CC(=O)CC[C@H]1C(=O)N[C@@H](C(C)C)C(=O)N[C@@H](Cc2cc(O)cc(F)c2)C(=O)N2CCCC(N2)C(=O)O[C@H](/C(C)=C/C=C/C(=O)N2CCCCO2)C/C=C/C=C/[C@H](O)[C@H](C)[C@H]1O (stereo partly shown) [Compound 24]
- AUC(0-t) (in vivo; [1]): 45500 ng·h/mL
- bioavailability (in vivo; whole blood, po): 3.6%
- SGF + denatured pepsin, % remaining after 1 hour (physchem; 37° C., 1 hour): 30%
- SGF + Pepsin, % remaining after 1 hour (physchem; SGF + pepsin, 37° C., 1 hour): 23%
- half-life at 100 µM (physchem; phosphate buffered saline (PBS), pH 7.3): > 1440 min
- PBS % remaining after 1 hour (physchem; 1 hour): 100%
- half-life at 100 µM (physchem; simulated gastric fluid (SGF), pH 1.2): < 19.8 min
- SGF % remaining after 1 hour (physchem; 1 hour): 18%

Structure (SMILES): CC(=O)CC[C@H]1C(=O)N[C@@H](C(C)C)C(=O)N[C@@H](Cc2cccc(O)c2)C(=O)N2CCCC(N2)C(=O)O[C@H](/C(C)=C/C=C/C(=O)N2CCOCC2)C/C=C/C=C/[C@H](O)[C@H](C)[C@H]1O (stereo partly shown) [Compound 43]
- AUC(0-t) (in vivo; [1]): 9800 ng·h/mL
- AUC(0-t) (in vivo; [2]): 8980 ng·h/mL
- bioavailability (in vivo; whole blood, po): 9.2%

Structure (SMILES): CCN(CC)C(=O)/C=C/C=C(\C)[C@@H]1C/C=C/C=C/[C@H](O)[C@H](C)[C@@H](O)[C@@H](CCC(C)=O)C(=O)N[C@@H](C(C)C)C(=O)N[C@@H](Cc2cccc(O)c2)C(=O)N2CCCC(N2)C(=O)O1 (stereo partly shown) [Compound 34]
- AUC(0-t) (in vivo; [1]): 14000 ng·h/mL
- AUC(0-t) (in vivo; [2]): 800 ng·h/mL
- bioavailability (in vivo; whole blood, po): 0.1%

Structure (SMILES): CON(C)C(=O)/C=C/C=C(\C)[C@@H]1C/C=C/C=C/C=C(\C)[C@@H](O)[C@@H](CCC(C)=O)C(=O)N[C@@H](C(C)C)C(=O)N[C@@H](Cc2cc(O)cc(F)c2)C(=O)N2CCCC(N2)C(=O)O1 (stereo partly shown) [Compound 26]
- AUC(0-t) (in vivo; [1]): 5500 ng·h/mL
- AUC(0-t) (in vivo; po, whole blood, 5 mg/kg p.o., read-out: AUClast after 5 mg/kg p.o. dose): 421 ng·h/mL
- bioavailability (in vivo; whole blood, po): 1.5%

Structure (SMILES): CCCC(=O)/C=C/C=C(\C)[C@@H]1C/C=C/C=C/[C@H](O)[C@H](C)[C@@H](O)[C@@H](CCC(C)=O)C(=O)N[C@@H](C(C)C)C(=O)N[C@@H](Cc2cccc(O)c2)C(=O)N2CCCC(N2)C(=O)O1 (stereo partly shown) [Compound 39]
- AUC(0-t) (in vivo; [1]): 1660 ng·h/mL
- AUC(0-t) (in vivo; [2]): 111 ng·h/mL
- bioavailability (in vivo; whole blood, po): 0.9%

Structure (SMILES): CC(=O)CC[C@H]1C(=O)N[C@@H](C(C)C)C(=O)N[C@@H](Cc2cccc(O)c2)C(=O)N2CCCC(N2)C(=O)O[C@H](/C(C)=C/C=C/C(=O)Nc2ccc(-c3ccccc3)cc2)C/C=C/C=C/[C@H](O)[C@H](C)[C@H]1O (stereo partly shown) [Compound 44]
- AUC(0-t) (in vivo; [1]): 2500 ng·h/mL
- bioavailability (in vivo; whole blood, po): 0%

Structure (SMILES): CC(=O)CC[C@H]1C(=O)N[C@@H](C(C)C)C(=O)N[C@@H](Cc2cccc(O)c2)C(=O)N2CCC[C@H](N2)C(=O)O[C@H](/C(C)=C/CO)C/C=C/C=C/[C@H](O)[C@H](C)[C@H]1O [hydroxymacrocycle, 6, hydroxymacrocycle]
- affinity for CyPA (cyclophilin A (CypA)): strong affinity

Structure (SMILES): CCOC(=O)/C=C/C=C(\C)[C@@H]1C/C=C/C=C/[C@H](O)[C@H](C)[C@@H](O)[C@@H](CCC(C)=O)C(=O)N[C@@H](C(C)C)C(=O)N[C@@H](Cc2cccc(O)c2)C(=O)N2CCCC(N2)C(=O)O1 (stereo partly shown) [Compound 38]
- AUC(0-t) (in vivo; [1]): 5790 ng·h/mL
- AUC(0-t) (in vivo; [2]): 3090 ng·h/mL
- bioavailability (in vivo; whole blood, po): 5.5%
